Measured values taken from the supplement of paper PMC10307832.

Key:
Test in all cases: relative viability (nuclei count vs DMSO), 5 days (fraction); higher = more cells survive
[1] = compound: C1=CC=C(C(=C1)C2=CC=C(C=C2)C3=CSC4=C3C(=C(C(=O)N4)C#N)O)O
How it was run: (§1)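 Acceptance criteria were a control CV below 25% and at least one doubling per plate. Lung cancer cell lines in 1536-well plates got five library-drug doses (not always all listed) √10 apart by pinning and were left 5 days with no medium change. Viability divides treated-well nuclei by vehicle-well nuclei and is the median across plates. Nuclei were counted by MetaXpress from 4× Hoechst images.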

TGX 221 = compound: CC1=CN2C(=O)C=C(N=C2C(=C1)C(C)NC3=CC=CC=C3)N4CCOCC4 [TGX 221]
How it was run: as §1

Ricolinostat = compound: O=C(CCCCCCNC(=O)c1cnc(N(c2ccccc2)c2ccccc2)nc1)NO [Ricolinostat]
How it was run: as §1

| Cell Line | relative viability ([1]; 0.08 µM) | relative viability ([1]; 0.253 µM) | relative viability ([1]; 0.8 µM) | relative viability ([1]; 2.53 µM) | relative viability ([1]; 8 µM) | relative viability (TGX 221; 0.08 µM) | relative viability (TGX 221; 0.253 µM) | relative viability (TGX 221; 0.8 µM) | relative viability (TGX 221; 2.53 µM) | relative viability (TGX 221; 8 µM) | relative viability (Ricolinostat; 0.08 µM) | relative viability (Ricolinostat; 0.253 µM) | relative viability (Ricolinostat; 0.8 µM) | relative viability (Ricolinostat; 2.53 µM) |
| --- | --- | --- | --- | --- | --- | --- | --- | --- | --- | --- | --- | --- | --- | --- |
| EMC-BAC-2 | 0.957 | 0.897 | 0.876 | 0.927 | 0.893 | 0.958 | 0.926 | 0.908 | 0.977 | 0.913 | 0.887 | 0.93 | 0.83 | 0.484 |
| EPLC-272H | 0.688 | 0.773 | 0.926 | 1 | 0.788 | 0.911 | 0.837 | 1.02 | 0.727 | 0.978 | 0.673 | 0.942 | 0.719 | 0.577 |
| H3255 | 0.995 | 1.09 | 0.882 | 1.01 | 0.858 | 0.946 | 0.917 | 0.93 | 0.872 | 1.01 | 0.809 | 0.911 | 0.838 | 0.783 |
| HARA | 0.768 | 1.98 | 0.999 | 0.751 | 0.856 | 0.997 | 0.947 | 0.964 | 0.942 | 1.05 | 0.878 | 1 | 0.866 | 0.567 |
| HCC-15 | 0.958 | 1.14 | 1.04 | 1.04 | 0.904 | 0.945 | 0.965 | 0.9 | 0.916 | 0.969 | 0.847 | 0.94 | 0.983 | 0.938 |
| HCC-44 | 1.03 | 1 | 0.997 | 0.956 | 0.991 | 0.991 | 1.03 | 1.03 | 0.99 | 1.03 | 1.01 | 0.966 | 0.962 | 0.77 |
| HCC-78 | 0.85 | 1.23 | 1.15 | 0.966 | 0.832 | 0.769 | 0.856 | 0.785 | 0.722 | 0.76 | – | 1.03 | 0.8 | 0.637 |
| HCC-366 | 0.829 | 1.08 | 1.07 | 1.01 | 0.638 | 0.942 | 0.999 | 1.03 | 0.957 | 1.01 | 0.984 | 1.03 | 1.03 | 0.769 |
| HCC-827 | 1.03 | 1.05 | 1.08 | 1.07 | 1.11 | 0.982 | 1.03 | 1.07 | 1.04 | 0.983 | 0.946 | 1.02 | 1.01 | 0.991 |
| HOP-62 | 1.08 | 1.12 | 1 | 1.08 | 0.82 | 0.965 | 1.06 | 1.04 | 1.09 | 1.09 | 0.932 | 0.987 | 1.03 | 0.913 |
| IA-LM | 0.725 | 1.45 | 1.04 | 1.15 | 0.655 | 0.883 | 0.96 | 1.07 | 0.981 | 0.966 | 0.657 | 0.924 | 0.797 | 0.777 |
| LC-2-ad | 0.824 | 1.05 | 0.898 | 1.04 | 0.906 | 0.962 | 1.01 | 1.01 | 1.02 | 0.92 | 0.866 | 0.964 | 0.946 | 0.683 |
